Assay results as given in patent US11851447B2, “Dinuclear platinum(II) compounds and methods of use thereof” (UNIVERSITY OF IOWA RESEARCH FOUNDATION, priority 2019, dated 2023).
Structures can show the parent of a compound that is named as a salt. Where two headings read alike, the source gives them in different places.

Assays:
[1] = target: DNAse I; assay: DNAse I inhibitor assay based on NIR emission of 4/QIII ensemble; assay type: biochemical; settings: [4]=4 μM, [QIII]=8 μM, [DNAse I]=4 U/ml, NIR emission at 785 nm; read-out: IC50 (DNAse I inhibition)
Protocol: General Procedure for Multiwell DNAse I Assay. A reaction mixture (total volume of 100 μL) containing 4 (4 μM) and QIII (8 μM) was prepared in 9:1 Tris buffer (10 mM Tris-HCl, 0.25 mM MgCl2, 0.1 mM CaCl2, pH 7.5):DMSO. Tris buffer was prepared using nuclease-free water. The reaction mixtures were prepared in white 96-well plates (Costar, Corning, NY) and incubated at room temperature for 2 min. Varying concentrations of DNAse I prepared in Tris buffer (10 mM Tris-HCl, 0.25 mM MgCl2, 0.1 mM CaCl2, pH 7.5) were added to the reaction mixture and incubated at room temperature for 10 min. Fluorescence spectra were obtained using Agilent Cary Eclipse fluorescence spectrophotometer, λex=445 nm. NIR emission intensity at 785 nm was detected.
Determination of IC50 Values of DNAse I Inhibitors. DNAse I assay was performed as previously described in the presence of DNAse I (4 U) and various concentrations of the inhibitor. Stock solutions of the inhibitors were prepared in Tris buffer (10 mM Tris-HCl, pH 7.5). The IC50 values were calculated by plotting log[inhibitor] versus NIR emission intensity of 4. The dose-response curves were analyzed by nonlinear regression using GraphPad Prism 8.0 (GraphPad Software, Inc., La Jolla, CA, USA).

[2] = target: DNAse I; settings: previously reported values (Jang et al., J. Biomol. Screen. 2015); cited from earlier work

IC50 [1] [µM] | Structure (SMILES) | IC50 [2] [µM]
2.29 | N=C(N)NNc1ccc(NNC(=N)N)cc1 [JR-132, 1,4-phenylene-bis-aminoguanidine hydrochloride] | 2.73
20.7 | [Cl-].[Cl-].[Zn+2] [ZnCl2] | 18

Structure (SMILES) | IC50 [1] [µM] | IC50 [2] [µM]
O=C(O)CN(CCN(CC(=O)O)CC(=O)O)CC(=O)O [EDTA] | 202 | 190
